From patent US20190338284A1, “COMPLEX FOR DRUG DELIVERY AND STABILIZATION AND PREPARATION METHOD THEREOF” (INTEROLIGO CORPORATION, priority 2016, published 2019)
“Also recorded” adds a separate entry of the source.

Experiments:
Type in all cases: cell-based, human
[1] = system: BxPC3, Miapaca-2, Panc-1 and capan-1 pancreatic cancer cell lines; test: WST-1 assay of aptamer-drug conjugate on pancreatic cancer cell lines; details: WST-1, 0.1 to 100 μM, 72 hours; listed as AS1411 aptamer
Description: WST-1 assay for pancreatic cancer cell lines, i.e., BxPC3, Miapaca-2, Panc-1 and capan-1 was performed. Cell inhibition efficacy validation of AS1411-Gem conjugate to the pancreatic cancer cell lines was performed in vitro through WST-1 assay. First, a control aptamer CRO in a naked form without being combined with an anticancer agent, AS1411 having a cancer cell-targeting function, as well as CRO-Gem conjugate and AS1411-Gem conjugate which are combined with an anticancer agent effective to pancreatic cancer, i.e., gemcitabine, respectively, were prepared (Table 2).
Experimental procedure: Each of the pancreatic cancer cell lines, that is, B×PC3, Miapaca-2, Panc-1 and capan-1 (ATCC, RPMI+10% FBS), was seeded on a 96-well plate in a cell number of 1 to 2×10^4 cells/well, which was defined by a cell test method to determine an appropriate cell concentration, followed by growing for 1 day. The aptamer and aptamer-drug conjugate were dissolved in PBS, respectively, and were immediately treated in each well at concentrations from 0.1 μM up to 100 μM. The treated cells were incubated in a 5% CO2 incubator for 72 hours, treated with 10 μl of a reagent solution for WST-1 assay (WST-1, Roche), respectively, followed by measuring the absorbance at 440 nm using an ELISA reader (FIG. 13).

[2] = system: BT-474 and MCF-7 breast cancer cell lines; test: WST-1 assay of atelocollagen-[ERBB2 aptamer-siRNA conjugate] complex on breast cancer cell lines
Description: Cell inhibition efficacy validation of atelcollagen-[ERBB2 aptamer-siRNA conjugate] complex to breast cancer cell lines, i.e., BT-474 and MCF-7, was performed in vitro through WST-1 assay. After treating the breast cancer cell lines with naked ERBB2, atelocollagen-[control aptamer-siRNA conjugate] complex without activity, as well as atelocollagen-[ERBB2 aptamer-siRNA conjugate] complex wherein an effective anticancer agent having excellent anticancer efficacy, that is, siRNA is bound to ERBB2 target aptamer having a cancer cell targeting function, respectively, WST-1 assay was performed.

[3] = system: BT-474 and MCF-7 breast cancer cell lines; test: WST-1 assay of ERBB2 aptamer-siRNA conjugate on breast cancer cell lines
Description: In addition, WST-1 assay for the breast cancer cell lines, i.e., BT-474 and MCF-7, was performed. Cell inhibition efficacy validation of ERBB2 aptamer to the breast cancer cell lines was performed in vitro through WST-1 assay. After treating the breast cancer cell lines with a control ERBB2 aptamer without activity, as well as ERBB2 aptamer-siRNA conjugate wherein an effective anticancer agent having excellent anticancer efficacy, that is, siRNA is bound to ERBB2 target aptamer having a cancer cell targeting function, respectively, WST-1 assay was performed.

Substance | cell viability and proliferation, comparison of efficacy [1] | cell viability and proliferation, comparison of efficacy [2] | cell viability and proliferation, comparison of efficacy [3]
TTTGGTGGTGGTGGTTGTGGTGGTGGTGG (SEQ ID NO: 3) [AS1411] | much better efficacy than CRO; also recorded: more excellent efficacy than the case of treatment using the original anticancer agent, that is, gemcitabine alone | – | –
ERBB2 aptamer-siRNA conjugate (chain 1 AGCUGUCACAGAGGGGCUACUU; chain 2 GUAGCCCCUCUGUGACAGCUU; siRNA conjugated to ERBB2 aptamer, further chemistry not given here) | – | much better efficacy than the control group | much better efficacy than the ERBB2 aptamer
